This note sets out measurements from ChEMBL document CHEMBL1201862, “PubChem BioAssay data set” (2004).

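Compound exposure: 48 hours, 5 concentrations, 96-well plates. Here, GI50 denotes the concentration required for 50% inhibition of growth.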 The source made the active and inactive calls. No stated cut-off is given here; in the data, active = GI50 up to about 1.1 µM and inactive = higher.

Test systems include BT-549; EKVX; HCC 2998; HCT-15; HL-60; MDA-N; Malme-3M; NCI-H23; NCI-H460; NCI-H522; PC-3; SF-539; SK-MEL-28; SN12C; SNB-19; SNB-75; SR; SW-620; UACC-62.
Experiment in all cases: NCI tumour cell line growth inhibition, 48 h

As for `O=C1NCN(c2ccccc2)C12CCN(CCCN1CCN(CCOC(c3ccccc3)c3ccccc3)CC1)CC2`, the GI50 is 3.92 µM (inactive) with BT-549; 3.68 µM (inactive) in the test with EKVX; 0.501 µM (active) with HCC 2998; 1.86 µM in the test on HCT-15; 1.18 µM (inactive) with HL-60; 0.8 µM (active) in the test on MDA-N. Further, the GI50 in the test on Malme-3M was 2.23 µM (inactive); with NCI-H23, 3.94 µM (inactive); with NCI-H460 it was 3.84 µM (inactive); in the test on NCI-H522, 1.73 µM (inactive); in the test with PC-3, 3.99 µM (inactive); in the test with SF-539, 1.25 µM (inactive). The GI50 with SK-MEL-28 is 1.34 µM (inactive); with SN12C, 3.82 µM (inactive); in the test on SNB-19, 3.94 µM (inactive); in the test with SNB-75 it was 2.18 µM (inactive); with SR, 0.561 µM (active); in the test on SW-620 it was 2.62 µM (inactive). The GI50 in the test on UACC-62 is 4.27 µM (inactive).

In the case of `CCOC(=O)c1nc2ccc(C(F)(F)F)cc2nc1Nc1ccc(OC)c(OC)c1`, the GI50 in the test on BT-549 was 97.9 µM (inactive); in the test on EKVX, > 100 µM (inactive); in the test with HCC 2998 it was > 100 µM (inactive); in the test with HCT-15, > 100 µM; in the test on HL-60, > 100 µM (inactive); with MDA-N, > 100 µM (inactive). In addition, the GI50 in the test with Malme-3M was > 100 µM (inactive); in the test on NCI-H23, > 100 µM (inactive); in the test with NCI-H460 it was > 100 µM (inactive); with NCI-H522, > 100 µM (inactive); in the test on PC-3 it was > 100 µM (inactive); in the test on SF-539 it was 98.6 µM (inactive). The GI50 in the test on SK-MEL-28 is > 100 µM (inactive); in the test on SN12C it was > 100 µM (inactive); with SNB-19, 31.7 µM (inactive); with SNB-75, 21.6 µM (inactive); in the test on SR it was 17.8 µM (inactive); in the test with SW-620, > 100 µM (inactive). Further, the GI50 in the test with UACC-62 is > 100 µM (inactive).

On to `CCCCCC(=O)Nc1[nH]cnc1C(N)=O`, for which the GI50 with BT-549 was > 100 µM (inactive); in the test on EKVX it was > 100 µM (inactive); in the test with HCC 2998, > 100 µM (inactive); in the test with HCT-15, > 100 µM; in the test with HL-60 it was > 100 µM (inactive); with MDA-N, > 100 µM (inactive). For the same compound, the GI50 in the test with Malme-3M, with NCI-H23, in the test with NCI-H460, in the test on NCI-H522, in the test on PC-3 and in the test with SF-539 was > 100 µM (inactive) each time. Also, the GI50 with SK-MEL-28, in the test with SN12C, in the test with SNB-19, with SNB-75, with SR and with SW-620 was > 100 µM (inactive) throughout. Further, in the test on UACC-62, the GI50 is > 100 µM (inactive).

For the compound `CN(C)CCCN1C(=S)N(CCCN(C)C)c2c3cc(O)ccc3nc3c([N+](=O)[O-])ccc1c23`, the GI50 in the test on BT-549 is 11.7 µM (inactive); with EKVX it was 4.08 µM (inactive); with HCC 2998 it was 2.44 µM (inactive); in the test on HCT-15, 1.87 µM; in the test on HL-60 it was 3.09 µM (inactive); in the test on MDA-N, 3.42 µM (inactive). Also, the GI50 with Malme-3M was 6.7 µM (inactive); in the test on NCI-H23, 3.41 µM (inactive); in the test on NCI-H460, 0.34 µM (active); with NCI-H522, 1.32 µM (inactive); in the test on PC-3, 2.05 µM (inactive); in the test on SF-539, 1.29 µM (inactive). For the same compound, the GI50 was 2.58 µM (inactive) in the test on SK-MEL-28; 2.65 µM (inactive) with SN12C; 2.06 µM (inactive) in the test on SNB-19; 3.37 µM (inactive) with SNB-75; 0.278 µM (active) in the test with SR; 1.96 µM (inactive) with SW-620. Besides, the GI50 in the test on UACC-62 is 5.13 µM (inactive).

For the compound `O=C(O)C(Cc1c[nH]c2ccccc12)C(=O)NO` (centres undefined), the GI50 in the test with BT-549 is > 100 µM (inactive); in the test on EKVX, 14.2 µM (inactive); in the test with HCC 2998, > 100 µM (inactive); with HCT-15, > 100 µM; in the test with HL-60 it was 53.7 µM (inactive); in the test on MDA-N, > 100 µM (inactive). In addition, the GI50 in the test with Malme-3M is > 100 µM (inactive); with NCI-H23, > 100 µM (inactive); in the test with NCI-H460, > 100 µM (inactive); in the test with NCI-H522, > 100 µM (inactive); with PC-3, 64.1 µM (inactive); with SF-539, > 100 µM (inactive). Moreover, the GI50 in the test on SK-MEL-28 was > 100 µM (inactive); in the test with SN12C it was > 100 µM (inactive); with SNB-19, > 100 µM (inactive); with SNB-75, > 100 µM (inactive); in the test with SR, > 100 µM (inactive); in the test on SW-620 it was 95.5 µM (inactive). Also, the GI50 in the test on UACC-62 is > 100 µM (inactive).

As to `O=C1c2cc3c(cc2CC12Cc1cc4c(cc1C2=O)CCCC4)CCCC3`, the GI50 in the test on BT-549 was 56.4 µM (inactive); in the test on EKVX, > 100 µM (inactive); in the test on HCC 2998, > 100 µM (inactive); in the test with HCT-15, > 100 µM; with HL-60, 34.9 µM (inactive); in the test with MDA-N, > 100 µM (inactive). Also, the GI50 in the test on Malme-3M was > 100 µM (inactive); with NCI-H23, 33.3 µM (inactive); in the test on NCI-H460, 25.6 µM (inactive); with NCI-H522, > 100 µM (inactive); in the test on PC-3 it was 40.2 µM (inactive); with SF-539 it was 52.2 µM (inactive). Besides, the GI50 was > 100 µM (inactive) with SK-MEL-28; 56.2 µM (inactive) in the test with SN12C; 33.8 µM (inactive) with SNB-19; 17.9 µM (inactive) in the test on SNB-75; 37.1 µM (inactive) in the test on SR; > 100 µM (inactive) in the test on SW-620. Moreover, the GI50 with UACC-62 was 58.2 µM (inactive).

Regarding `CCN(CC)CCNc1nc2ccc([N+](=O)[O-])cc2[n+]([O-])n1`, the GI50 was 73.8 µM (inactive) with BT-549; 11.4 µM (inactive) with HCC 2998; 11.5 µM in the test on HCT-15; 3.44 µM (inactive) in the test with HL-60; 14.9 µM (inactive) in the test on MDA-N; 1.75 µM (inactive) in the test with Malme-3M. The GI50 in the test on NCI-H23 is 18.3 µM (inactive); in the test with NCI-H460, 10.4 µM (inactive); in the test with NCI-H522 it was 28.1 µM (inactive); in the test on PC-3, 20.1 µM (inactive); in the test with SF-539, 23.3 µM (inactive); in the test on SK-MEL-28 it was 71.6 µM (inactive). Further, the GI50 in the test on SN12C is 19 µM (inactive); with SNB-19 it was 41.4 µM (inactive); with SNB-75, 29.3 µM (inactive); in the test on SR, 18.4 µM (inactive); in the test on SW-620, 16.2 µM (inactive); in the test on UACC-62, 16.6 µM (inactive).

With `CC1(C)C2CCC3=C(CCC4(C)C5C[C@](C)(C(=O)O)CC[C@]5(C)CC[C@]34C)[C@@]2(C)CC[C@@H]1O` (some centres undefined), the GI50 in the test on BT-549 is 20.1 µM (inactive); with EKVX, 20.4 µM (inactive); in the test with HCC 2998, 64.9 µM (inactive); with HCT-15, 16.5 µM; with HL-60, 18.1 µM (inactive); in the test with MDA-N it was 18.8 µM (inactive). Also, the GI50 in the test with Malme-3M is 17.1 µM (inactive); with NCI-H23, 19.3 µM (inactive); in the test on NCI-H460 it was 15.2 µM (inactive); with NCI-H522 it was 20 µM (inactive); with PC-3, 14.8 µM (inactive); with SF-539 it was 37.3 µM (inactive). The GI50 is 17.5 µM (inactive) with SK-MEL-28; > 10 µM (inactive) in the test on SNB-19; 19 µM (inactive) with SNB-75; 30.8 µM (inactive) with SR; 16.6 µM (inactive) in the test on SW-620; 19.3 µM (inactive) with UACC-62.

`CN(C)CCNC(=O)c1cccc(CO)c1[N+](=O)[O-]`: the GI50 was > 100 µM (inactive) in the test on BT-549; > 100 µM (inactive) in the test on HCC 2998; > 100 µM in the test on HCT-15; > 100 µM (inactive) in the test with HL-60; > 100 µM (inactive) in the test with MDA-N; > 100 µM (inactive) with Malme-3M. For the same compound, the GI50 with NCI-H23, with NCI-H460, with NCI-H522, in the test on PC-3, in the test on SF-539 and in the test on SK-MEL-28 was > 100 µM (inactive) throughout. Besides, the GI50 in the test on SN12C was > 100 µM (inactive); in the test on SNB-19 it was > 100 µM (inactive); with SNB-75 it was 75 µM (inactive); in the test on SR, > 100 µM (inactive); with SW-620, > 100 µM (inactive); with UACC-62 it was > 100 µM (inactive).

Take `CN(C)c1ccc(C2C(Cl)C(=O)N2NC(=O)c2c(Cl)c(Cl)c(Cl)c(Cl)c2-c2nc3ccccc3[nH]2)cc1` (centres undefined): the GI50 in the test with BT-549 was 13.6 µM (inactive); with EKVX, 18.3 µM (inactive); with HCC 2998, 16.3 µM (inactive); with HCT-15, 12.9 µM; in the test with HL-60, 3.3 µM (inactive); in the test with MDA-N, 5.77 µM (inactive). Also, the GI50 in the test with Malme-3M is 16.3 µM (inactive); with NCI-H23 it was 12.5 µM (inactive); in the test on NCI-H522, 2.79 µM (inactive); in the test on PC-3, 12.9 µM (inactive); with SF-539, 7.89 µM (inactive); in the test on SK-MEL-28 it was 28.1 µM (inactive). Further, the GI50 in the test on SN12C is 11.1 µM (inactive); in the test on SNB-19 it was 30.3 µM (inactive); in the test with SNB-75, 15.6 µM (inactive); in the test with SR, 0.685 µM (active); with SW-620 it was 4.29 µM (inactive); with UACC-62 it was 12.7 µM (inactive).

In the case of `COc1ccccc1NC(=O)C(=O)C(C#N)CC(C)(C)C=O` (centres undefined), the GI50 in the test with BT-549 was > 100 µM (inactive); in the test on EKVX it was > 100 µM (inactive); in the test with HCC 2998, > 100 µM (inactive); in the test on HCT-15, > 100 µM; in the test with HL-60 it was > 100 µM (inactive); in the test with MDA-N, > 100 µM (inactive). In addition, the GI50 with Malme-3M, with NCI-H23, in the test with NCI-H460, in the test on NCI-H522, in the test with PC-3 and in the test on SF-539 was > 100 µM (inactive) each time. Further, the GI50 with SK-MEL-28, with SN12C, in the test with SNB-75, in the test on SR, with SW-620 and in the test on UACC-62 was > 100 µM (inactive) each time.
